Assay results taken from patent US12129265B2, “Therapeutic agents and uses thereof” (Ankh Life Sciences Limited, priority 2020, dated 2024).
pIC50: −log10 of the molar value. Where two headings read alike, the source gives them in different places. Each block holds one compound with its values, some of them ahead of it.

How the values were obtained:
Assay in all cases: CellTiter-Glo in vitro cell proliferation assay, Example 8
Type in all cases: cell-based, Human
[1] = tested on: MOLP-8 cells; settings: MOLP-8, MM IgD, read-out: Mean IC50
Description: (§1) In this Example, in vitro cell proliferation assays were performed using: (1) Human Myeloma tumor cell lines; (2) Human Lymphoma tumor cell lines; (3) Solid Human tumor cell lines; and (4) Parental, Lenalidomide resistant and Bortezomib resistant Jeko-1 Mantle cell Lymphoma tumor cell lines. The compounds tested were three diharmaline compounds, namely the 518B562 (or simply 562), 560, and 561 compounds. In addition, a monoharmaline product designated as 518F014 was also tested. This monoharmaline product had the following structure:
(§2) Each proliferation assay was carried out as follows. The test cells were plated in growth media using a 384-well microtiter plate at 50 μL volume. The cells were incubated for 24 hours at 37° C. in a humidified incubator. After 24 hours of incubation, the test compounds were added to the test wells in DSMO solvent, at concentrations ranging from 0.0075-100 μM. Control wells received equal volumes of DSMO, without compound. Following drugging, the cells were incubated for 72 hours at 37° C. in a humidified incubator. After this exposure, 100 μL of a 1:1 mixture of sterile water and CellTiter-Glo® reagent (Promega) was added to each well. The plates were then incubated for 60 minutes at room temperature, followed by recording the luminescence value of each well using a luminometer as a measure of cell proliferation.

[2] = tested on: KMM-1 cells; settings: KMM-1, HMCL-A, read-out: Mean IC50
Description: as §1, §2

[3] = tested on: H1650 (EGFR mut) cells; settings: read-out: Mean IC50
Description: as §1, §2

[4] = tested on: A2780 cells; settings: A2780, Ovarian, read-out: Mean IC50
Description: as §1, §2

[5] = tested on: ASPC-1 cells; settings: ASPC-1, Pancreatic, read-out: Mean IC50
Description: as §1, §2

[6] = tested on: JIM1 cells; settings: JIM1, HMCL, read-out: Mean IC50
Description: as §1, §2

[7] = tested on: MDA-MB-231 cells; settings: MDA-MB-231, TNBC, read-out: Mean IC50
Description: as §1, §2

[8] = tested on: HCC70 cells; settings: HCC70, TNBC, read-out: Mean IC50
Description: as §1, §2

[9] = tested on: OCI-LY3 cells; settings: OCI-LY3, ABC-DLBCL, read-out: Mean IC50
Description: as §1, §2

[10] = tested on: A2780CP cells; settings: Ovarian, read-out: Mean IC50
Description: as §1, §2

[11] = tested on: SiHA cells; settings: Cervical - SC, read-out: Mean IC50
Description: as §1, §2

[12] = tested on: MIA PaCa-2 cells; settings: MIA PaCa-2, Pancreatic, read-out: Mean IC50
Description: as §1, §2

[13] = tested on: HEC-1a cells; settings: Endometrial, read-out: Mean IC50
Description: as §1, §2

[14] = tested on: L363 cells; settings: L363, PCL/MM, read-out: Mean IC50
Description: as §1, §2

[15] = tested on: H1975 (EGFR mut) cells; settings: read-out: Mean IC50
Description: as §1, §2

[16] = tested on: DOHH-2 cells; settings: DoHH-2, GCB-DLBCL, read-out: Mean IC50
Description: as §1, §2

[17] = tested on: AN3CA cells; settings: Endometrial, read-out: Mean IC50
Description: as §1, §2

[18] = tested on: MDA-MB-468 cells; settings: MDA-MB-468, TNBC, read-out: Mean IC50
Description: as §1, §2

[19] = tested on: KMS-34 cells; settings: KMS-34, HMCL-B, read-out: Mean IC50
Description: as §1, §2

[20] = tested on: A498 cells; settings: A498, RCC, read-out: Mean IC50
Description: as §1, §2

[21] = tested on: FaDu cells; settings: H&N - SC, read-out: Mean IC50
Description: as §1, §2

[22] = tested on: BxPC-3 cells; settings: BxPC-3, Pancreatic, read-out: Mean IC50
Description: as §1, §2

[23] = tested on: RPMI-8226 cells; settings: RPMI-8226, HMM
Description: as §2
In this example, different cell lines were subjected to in vitro cell proliferation assays as described in Example 8. In particular, the cell lines are identified in the following Table 17, and the tissue types were: Pancreatic; Endometrial; Triple-Negative Breast Cancer (TNBC); Non-Small-Cell Lung Carcinoma (NSCLC); Ovarian; Renal Cell Carcinoma (RCC); Cervical-Squamous Cell; […] (H&N-Squamous Cell); Germinal Center B Cell-Like Novo Diffuse Large B-Cell Lymphoma (GCB-DLBCL); Activated B-Cell—Diffuse Large B Cell Lymphoma (ABC-DLBCL); Human Myeloma; Human Myeloma Cell Line Lymphocyte-Like; Human Myeloma Cell Line Lymphocyte-Like Myeloma Pleural Effusion Infiltration; Human Multiple Myeloma; Plasma Cell Leukemia/Multiple Myeloma Epstein-Barr Nuclear Antigen-Negative (EBNA-Negative) and to Express mRNA for Proto-Oncogene B-Cell Lymphoma 2 (BCL2); Multiple Myeloma from Peripheral Blood Type IgD Lmabda.

SMILES: COc1ccc2c3c([nH]c2c1)C(CC(CC1=NCCc2c1[nH]c1cc(OC)ccc21)c1ccc(F)c(Oc2ccccc2)c1)=NCC3 [compound 19]
pIC50 [1]: 5.01 | pIC50 [2]: 4.59 | pIC50 ([3]; NSCLC): 4.25 | pIC50 [4]: 4.66 | pIC50 [5]: 4.34 | pIC50 [6]: 4.37 | pIC50 [7]: 4.38 | pIC50 [8]: 4.29 | pIC50 [9]: 4.69 | pIC50 [10]: 4.56 | pIC50 [11]: 4.12 | pIC50 [12]: 4.44 | pIC50 [13]: 4.35 | pIC50 [14]: 4.43 | pIC50 ([15]; NSCLC): 4.26 | pIC50 [16]: 4.99 | pIC50 [17]: 4.64 | pIC50 [18]: 4.31 | pIC50 [19]: 4.51 | pIC50 [20]: 4.05 | pIC50 [21]: 4.35 | pIC50 [22]: 4.44 | pIC50 [23]: 4.98

SMILES: COc1ccc2c3c([nH]c2c1)C(CC(CC1=NCCc2c1[nH]c1cc(OC)ccc21)c1cccc(F)c1)=NCC3 [compound 20]
pIC50 [1]: 5.64 | pIC50 [2]: 5.44 | pIC50 ([3]; NSCLC): 5.35 | pIC50 [4]: 5.43 | pIC50 [5]: 5.44 | pIC50 [6]: 5.37 | pIC50 [7]: 5.33 | pIC50 [8]: 5.20 | pIC50 [9]: 5.41 | pIC50 [10]: 5.30 | pIC50 [11]: 5.17 | pIC50 [12]: 5.57 | pIC50 [13]: 4.96 | pIC50 [14]: 5.41 | pIC50 ([15]; NSCLC): 5.19 | pIC50 [16]: 5.73 | pIC50 [17]: 5.73 | pIC50 [18]: 5.29 | pIC50 [19]: 5.49 | pIC50 [20]: 4.95 | pIC50 [21]: 5.39 | pIC50 [22]: 5.65 | pIC50 [23]: 5.90

SMILES: COc1ccc2c3c([nH]c2c1)C(CC(CC1=NCCc2c1[nH]c1cc(OC)ccc21)c1ccc(F)cc1)=NCC3 [compound 21]
pIC50 [1]: 5.43 | pIC50 [2]: 5.19 | pIC50 ([3]; NSCLC): 5.09 | pIC50 [4]: 5.12 | pIC50 [5]: 5.29 | pIC50 [6]: 5.26 | pIC50 [7]: 5.23 | pIC50 [8]: 4.96 | pIC50 [9]: 5.31 | pIC50 [10]: 5.01 | pIC50 [11]: 4.94 | pIC50 [12]: 5.36 | pIC50 [13]: 4.93 | pIC50 [14]: 5.29 | pIC50 ([15]; NSCLC): 4.94 | pIC50 [16]: 5.44 | pIC50 [17]: 5.41 | pIC50 [18]: 5.17 | pIC50 [19]: 5.42 | pIC50 [20]: 4.93 | pIC50 [21]: 5.20 | pIC50 [22]: 5.45 | pIC50 [23]: 5.45

SMILES: COc1ccc2c3c([nH]c2c1)C(CC(CC1=NCCc2c1[nH]c1cc(OC)ccc21)c1cc(F)cc(F)c1)=NCC3 [compound 22]
pIC50 [1]: 5.42 | pIC50 [2]: 5.21 | pIC50 ([3]; NSCLC): 4.95 | pIC50 [4]: 5.04 | pIC50 [5]: 5.06 | pIC50 [6]: 5.13 | pIC50 [7]: 5.15 | pIC50 [8]: 4.88 | pIC50 [9]: 5.01 | pIC50 [10]: 5.03 | pIC50 [11]: 4.93 | pIC50 [12]: 5.23 | pIC50 [13]: 4.93 | pIC50 [14]: 5.21 | pIC50 ([15]; NSCLC): 4.94 | pIC50 [16]: 5.37 | pIC50 [17]: 5.38 | pIC50 [18]: 4.94 | pIC50 [19]: 5.41 | pIC50 [20]: 4.67 | pIC50 [21]: 4.96 | pIC50 [22]: 5.27 | pIC50 [23]: 5.69

SMILES: COc1ccc2c3c([nH]c2c1)C(CC(CC1=NCCc2c1[nH]c1cc(OC)ccc21)c1cc(F)c(F)cc1F)=NCC3 [compound 23]
pIC50 [1]: 5.50 | pIC50 [2]: 5.40 | pIC50 ([3]; NSCLC): 5.23 | pIC50 [4]: 5.29 | pIC50 [5]: 5.03 | pIC50 [6]: 5.20 | pIC50 [7]: 5.23 | pIC50 [8]: 4.96 | pIC50 [9]: 5.26 | pIC50 [10]: 5.19 | pIC50 [11]: 4.93 | pIC50 [12]: 5.25 | pIC50 [13]: 4.90 | pIC50 [14]: 5.33 | pIC50 ([15]; NSCLC): 5.08 | pIC50 [16]: 5.43 | pIC50 [17]: 5.62 | pIC50 [18]: 5.18 | pIC50 [19]: 5.46 | pIC50 [20]: 4.67 | pIC50 [21]: 5.21 | pIC50 [22]: 5.30 | pIC50 [23]: 5.89

pIC50 ([3]; Homo sapiens, NCI-H1650, NSCLC): 4.90 | pIC50 ([4]; Homo sapiens): 4.97 | pIC50 ([5]; Homo sapiens, ASPC1): 4.49 | pIC50 ([7]; Homo sapiens): 4.68 | pIC50 ([9]; Homo sapiens): 4.94 | pIC50 ([10]; Homo sapiens, A2780C/P): 4.75 | pIC50 ([12]; Homo sapiens): 4.89 | pIC50 ([15]; Homo sapiens, NCI-H1975, NSCLC): 4.93 | pIC50 ([18]; Homo sapiens): 4.78 | pIC50 ([22]; Homo sapiens): 4.97 | pIC50 ([23]; Homo sapiens): 5.30
SMILES: COc1ccc2c3c([nH]c2c1)C(CC(CC1=NCCc2c1[nH]c1cc(OC)ccc21)c1c(F)c(F)c(F)c(F)c1F)=NCC3 [compound 24]
pIC50 ([1]; Homo sapiens): 4.98 | pIC50 ([2]; Homo sapiens): 4.95 | pIC50 ([6]; Homo sapiens): 4.25 | pIC50 ([8]; Homo sapiens): 4.59 | pIC50 ([11]; Homo sapiens): 4.23 | pIC50 ([13]; Homo sapiens): 4.32 | pIC50 ([14]; Homo sapiens, L-363): 4.88 | pIC50 ([16]; Homo sapiens): 5.25 | pIC50 ([17]; Homo sapiens, AN3-CA): 4.95 | pIC50 ([19]; Homo sapiens): 5.11 | pIC50 ([20]; Homo sapiens): 4.08 | pIC50 ([21]; Homo sapiens): 4.93

SMILES: COc1ccc2c3c([nH]c2c1)C(CC(CC1=NCCc2c1[nH]c1cc(OC)ccc21)c1ccc(Cl)cc1)=NCC3 [compound 27]
pIC50 [1]: 5.40 | pIC50 [2]: 5.14 | pIC50 ([3]; NSCLC): 4.95 | pIC50 [4]: 5.09 | pIC50 [5]: 5.13 | pIC50 [6]: 4.94 | pIC50 [7]: 5.13 | pIC50 [8]: 4.94 | pIC50 [9]: 5.03 | pIC50 [10]: 4.95 | pIC50 [11]: 4.94 | pIC50 [12]: 5.23 | pIC50 [13]: 4.93 | pIC50 [14]: 5.11 | pIC50 ([15]; NSCLC): 4.94 | pIC50 [16]: 5.60 | pIC50 [17]: 5.36 | pIC50 [18]: 4.97 | pIC50 [19]: 5.35 | pIC50 [20]: 4.93 | pIC50 [21]: 4.95 | pIC50 [22]: 5.34 | pIC50 [23]: 5.49
